Assay results published in US20160280651A1, “COMPOUNDS THAT INDUCE ABA RESPONSES” (THE REGENTS OF THE UNIVERSITY OF CALIFORNIA, priority 2013, published 2016).

What was measured:
[1] = test system: Physcomitrella patens; assay: Protonema growth of moss; assay type: in vivo; conditions: 200 μM for 10 days
Description: FIG. 17A-FIG. 17D. The effect of ABA and its agonists in Physcomitrella patens and Chlamydomonas. Protonemal growth images (A) and quantitative analysis (B) of the effects of ABA and agonists on Phsycomitrella patens. Protonema were grown on 200 μM of specific test chemical for 10 days. […] Pyrabactin bleached protonema. (C) The expression of ABA-responsive genes of Physcomitrella patens. Protonema were treated with 200 μM chemical solutions for 3 h. (D) Colony growth of Chlamydomonas on the chemical with salinity stress and osmotic stress. There was no effect of ABA and LC66C6 on the Chlamydomonas growth with and without stresses.

[2] = test system: ABA-responsive genes; assay: ATH1 microarray analysis; assay type: in vivo, Arabidopsis; conditions: wild-type seedlings; 25 μM
Description: (§1) FIG. 9A-FIG. 9D. LC66C6 induces numerous ABA-responsive genes. […] Ten-day old seedlings were treated with carrier solvent (DMSO) or either 25 μM ABA, pyrabactin or LC66C6 for 8 hours. Total RNA was then prepared labeled and hybridized to ATH1 microarrays. Data plotted are log 2 transformed average expression values for ˜13K probes that were detectable across all experiments. Data shown are averages determined from triplicate biological replicates. (C) and (D) show the expression of a reporter gene in different plant tissues after treatment with vehicle (DMSO), pyrabactin, LC66C6, or (+)-ABA.
Total RNA was isolated using RNAeasy Plant Mini Kit (Qiagen, USA) according to the manufacturer's instructions. cDNA synthesis, labeling and hybridization to the Arabidopsis ATH1 chips (Affymetrix, USA) were performed by the IIGB Core Instrumentation Facility of University of California at Riverside using Affymetrix protocols. Biological triplicate samples were hybridized for DMSO controls, ABA, pyrabactin and quinabactin treatments; compound were applied at 25 μM final concentration and RNA prepared from frozen tissue after 6 hours exposure to compounds or controls. Expression signals for probe sets were calculated and normalized by MASS Statistical Algorithm (Affymetrix, USA). Experimental filtering of array data was performed for the presence of signal in all experiments. […]

[3] = test system: ABA-responsive genes; assay: Quantitative RT-PCR of ABA-responsive genes in Arabidopsis; assay type: in vivo; conditions: for Induction of MAPKKK18, RD29A and RD29B mRNAs: Col and Ler ecotypes and pyr1, pyl1, pyl2, pyl3, pyl4 single mutants; for Expression of ABF3, GBF3, NCED3 and RD29A: Col wild-type plants; for Expression of RD29B and MAPKKK18 mRNA: wild-type plants
Description: as §1
FIG. 10. ABA-responsive gene expression in PYR/PYL single mutants. The response of the ABA-responsive MAPKKK18, RD29A, and RD29B mRNAs to LC66C6, ABA and pyrabactin were characterized in the Col and Ler ecotypes and the pyr1, pyl1, ply2, pyl3 and pyl4 single mutant genotypes.
FIG. 11. LC66C6 induces ABA-responsive gene expression in wild-type plants, abi1-1 and PYR/PYL quadruple mutants.
Total RNA was isolated using Plant RNA purification reagent (Invitrogen, USA) according to the manufacturer's instructions. cDNA was synthesized from 1 μg of total RNA using the QantiTec reverse transcription kit (Qiagen, USA). Real-time PCR using Maxima® SYBR Green/Fluorescein qPCR Master Mix (Fermentas) was performed with the iQ5 real-time PCR detection system (Bio-Rad, Hercules, Calif.). The relative amounts of target mRNAs were determined using the relative standard curve method and were normalized by relative amount of internal control mRNA. Biological triplicate experiments were performed.

Row | Structure (SMILES) | Growth of protonema [1] | Genome-wide expression pattern compared with ABA [2] | Induction of MAPKKK18, RD29A and RD29B mRNAs [3] | Expression of ABF3, GBF3, NCED3 and RD29A [3] | Expression of RD29B and MAPKKK18 mRNA [3]
1 | CCCN1C(=O)CCc2cc(NS(=O)(=O)Cc3ccc(C)cc3)ccc21 [LC66C6] | weak but significant inhibition | induces a similar set of genes to those induced by ABA | induced | induced expression of ABF3, GBF3, NCED3, and RD29A in a dose dependent manner | induced the expression of RD29B and MAPKKK18 mRNA in a dose dependent manner in wild-type plants
2 | O=S(=O)(NCc1ccccn1)c1ccc(Br)c2ccccc12 [pyrabactin, reference compound] | bleached the protonema | did not induce an expression pattern similar to that of ABA | did not significantly induce expression | did not induce significant expression | did not induce gene expression in wild-type plants
